In brackets after ≈: the same amount, converted by molar mass.
System: Enterobacteriaceae spp. strains
Assay: In vitro activity (MIC) against Enterobacteriaceae spp. strains

CO[C@H]1/C=C/O[C@@]2(C)Oc3c(C)c(O)c4c(O)c(c5c(nc6cc(C)ccn65)c4c3C2=O)NC(=O)/C(C)=C\C=C\[C@H](C)[C@H](O)[C@@H](C)[C@@H](O)[C@@H](C)[C@H](OC(C)=O)[C@@H]1C [Rifaximin, reference compound]
MIC (Klebsiella aerogenes, E. aerogenes 290): 32 µg/mL (≈ 40.7 µM) | MIC (Klebsiella aerogenes, E. aerogenes 1023): 32 µg/mL (≈ 40.7 µM) | MIC (Klebsiella aerogenes, E. aerogenes 1030): 32 µg/mL (≈ 40.7 µM) | MIC (Klebsiella aerogenes, E. aerogenes 1031): 32 µg/mL (≈ 40.7 µM) | MIC (Klebsiella oxytoca, K. oxytoca 4): 32 µg/mL (≈ 40.7 µM) | MIC (Klebsiella oxytoca, K. oxytoca 18): 32 µg/mL (≈ 40.7 µM) | MIC (Klebsiella oxytoca, K. oxytoca 479): 32 µg/mL (≈ 40.7 µM) | MIC (Klebsiella oxytoca, K. oxytoca 499): 32 µg/mL (≈ 40.7 µM) | MIC (Klebsiella pneumoniae, K. pneumoniae 17): 32 µg/mL (≈ 40.7 µM) | MIC (Klebsiella pneumoniae, K. pneumoniae 19): 32 µg/mL (≈ 40.7 µM) | MIC (Klebsiella pneumoniae, K. pneumoniae 76): 32 µg/mL (≈ 40.7 µM) | MIC (Klebsiella pneumoniae, K. pneumoniae 80): 32 µg/mL (≈ 40.7 µM) | MIC (Klebsiella pneumoniae, K. pneumoniae 91): 32 µg/mL (≈ 40.7 µM) | MIC (Klebsiella pneumoniae, K. pneumoniae 1064): 32 µg/mL (≈ 40.7 µM) | MIC (Morganella morganii, M. morganii 42): 16 µg/mL (≈ 20.4 µM) | MIC (Morganella morganii, M. morganii 48): 32 µg/mL (≈ 40.7 µM) | MIC (Morganella morganii, M. morganii 50): 32 µg/mL (≈ 40.7 µM) | MIC (Morganella morganii, M. morganii 57): 32 µg/mL (≈ 40.7 µM) | MIC (Morganella morganii, M. morganii 67): 32 µg/mL (≈ 40.7 µM) | MIC (Morganella morganii, M. morganii 101): 32 µg/mL (≈ 40.7 µM) | MIC (Morganella morganii, M. morganii 105): 32 µg/mL (≈ 40.7 µM) | MIC (Morganella morganii, M. morganii 108): 32 µg/mL (≈ 40.7 µM) | MIC (Morganella morganii, M. morganii 453): 8 µg/mL (≈ 10.2 µM) | MIC (Morganella morganii, M. morganii 458): 32 µg/mL (≈ 40.7 µM) | MIC (Morganella morganii, M. morganii 461): 32 µg/mL (≈ 40.7 µM) | MIC (Morganella morganii, M. morganii 462): 32 µg/mL (≈ 40.7 µM) | MIC (Morganella morganii, M. morganii 923): 16 µg/mL (≈ 20.4 µM) | MIC (Morganella morganii, M. morganii 932): 32 µg/mL (≈ 40.7 µM) | MIC (Morganella morganii, M. morganii 935): 32 µg/mL (≈ 40.7 µM) | MIC (Morganella morganii, M. morganii 1006): 8 µg/mL (≈ 10.2 µM) | MIC (Proteus mirabilis, P. mirabilis 465): 32 µg/mL (≈ 40.7 µM) | MIC (Proteus mirabilis, P. mirabilis 466): 32 µg/mL (≈ 40.7 µM) | MIC (Proteus mirabilis, P. mirabilis 469): 32 µg/mL (≈ 40.7 µM) | MIC (Proteus mirabilis, P. mirabilis 470): 16 µg/mL (≈ 20.4 µM) | MIC (Proteus mirabilis, P. mirabilis 471): 8 µg/mL (≈ 10.2 µM) | MIC (Proteus mirabilis, P. mirabilis 472): 8 µg/mL (≈ 10.2 µM) | MIC (Proteus mirabilis, P. mirabilis 473): 16 µg/mL (≈ 20.4 µM) | MIC (Proteus mirabilis, P. mirabilis 477): 32 µg/mL (≈ 40.7 µM) | MIC (Proteus mirabilis, P. mirabilis 479): 32 µg/mL (≈ 40.7 µM) | MIC (Proteus mirabilis, P. mirabilis 480): 32 µg/mL (≈ 40.7 µM) | MIC (Proteus mirabilis, P. mirabilis 489): 32 µg/mL (≈ 40.7 µM) | MIC (Proteus mirabilis, P. mirabilis 928): 32 µg/mL (≈ 40.7 µM) | MIC (Proteus mirabilis, P. mirabilis 972): 32 µg/mL (≈ 40.7 µM) | MIC (Proteus mirabilis, P. mirabilis 983): 16 µg/mL (≈ 20.4 µM) | MIC (Proteus mirabilis, P. mirabilis 985): 32 µg/mL (≈ 40.7 µM) | MIC (Proteus mirabilis, P. mirabilis 987): 32 µg/mL (≈ 40.7 µM) | MIC (Proteus mirabilis, P. mirabilis 988): 8 µg/mL (≈ 10.2 µM) | MIC (Proteus mirabilis, P. mirabilis 990): 32 µg/mL (≈ 40.7 µM) | MIC (Proteus mirabilis, P. mirabilis 991): 32 µg/mL (≈ 40.7 µM) | MIC (Proteus mirabilis, P. mirabilis 993): 16 µg/mL (≈ 20.4 µM) | MIC (Proteus mirabilis, P. mirabilis 995): 32 µg/mL (≈ 40.7 µM) | MIC (Proteus mirabilis, P. mirabilis 996): 32 µg/mL (≈ 40.7 µM) | MIC (Proteus mirabilis, P. mirabilis 997): 32 µg/mL (≈ 40.7 µM) | MIC (Proteus mirabilis, P. mirabilis 998): 8 µg/mL (≈ 10.2 µM) | MIC (Providencia stuartii, P. stuartii 94): 32 µg/mL (≈ 40.7 µM) | MIC (Providencia stuartii, P. stuartii 299): 16 µg/mL (≈ 20.4 µM) | MIC (Providencia stuartii, P. stuartii 301): 32 µg/mL (≈ 40.7 µM) | MIC (Providencia stuartii, P. stuartii 306): 16 µg/mL (≈ 20.4 µM) | MIC (Providencia stuartii, P. stuartii 312): 32 µg/mL (≈ 40.7 µM) | MIC (Providencia stuartii, P. stuartii 459): 32 µg/mL (≈ 40.7 µM) | MIC (S. odorifera 59): 32 µg/mL (≈ 40.7 µM) | MIC (Serratia marcescens, S. marcescens 38): 32 µg/mL (≈ 40.7 µM) | MIC (Serratia marcescens, S. marcescens 45): 32 µg/mL (≈ 40.7 µM) | MIC (Serratia marcescens, S. marcescens 59): 32 µg/mL (≈ 40.7 µM) | MIC (Serratia marcescens, S. marcescens 63): 32 µg/mL (≈ 40.7 µM) | MIC (Stenotrophomonas maltophilia, S. maltophilia 1203): 32 µg/mL (≈ 40.7 µM) | MIC (Stenotrophomonas maltophilia, S. maltophilia 1208): 32 µg/mL (≈ 40.7 µM)
